Measured values published in ChEMBL document CHEMBL1152779, “Synthesis and applications of polyamine amino acid residues: improving the bioactivity of an analgesic neuropeptide, neurotensin” (J Med Chem, 2009).
Active and inactive are the calls of the source. The calls are words filed in the database; no cut-off is given here. Numbered stars: 1 amine (or outer) side, 2 acyl side, 3 side chain; on linkers, the order of the positions; unused ones are H or OH. Square brackets hold non-standard residues; d marks the D form. Peptide text beside a SMILES is read from it. X1 = NCCCNCCCCNCCCNCCCNCCCC[C@H](N[*:1])C(=O)[*:2]; X2 = O=C([C@H](Cc1cccc2cc[nH]c12)N[*:1])[*:2]; NMeR = CN[C@@H](CCCNC(=N)N)C(=O)O; Tle = CC(C)(C)[C@H](N)C(=O)O

How the values were obtained:
Mus musculus [1] = experiment: Analgesic activity against formalin-induced paw pain in mouse assessed as effect on duration of paw licking at 4 mg/kg, ip 1 hr before formalin challenge; format: functional, organism-based; set-up: dose 4 mg/kg
Mus musculus [2] = experiment: Analgesic activity against formalin-induced paw pain in mouse assessed as elimination of inflammatory phase at 4 mg/kg, ip 1 hr before formalin challenge; format: functional, organism-based; set-up: dose 4 mg/kg
[3] = target: Neurotensin receptor type 1 (Homo sapiens, UniProt P30989); experiment: Binding affinity to human recombinant NTS1 in HEK293T cells by competitive binding assay; format: cell-based, HEK-293T
Sequence of Neurotensin receptor type 1 (P30989 whole entry): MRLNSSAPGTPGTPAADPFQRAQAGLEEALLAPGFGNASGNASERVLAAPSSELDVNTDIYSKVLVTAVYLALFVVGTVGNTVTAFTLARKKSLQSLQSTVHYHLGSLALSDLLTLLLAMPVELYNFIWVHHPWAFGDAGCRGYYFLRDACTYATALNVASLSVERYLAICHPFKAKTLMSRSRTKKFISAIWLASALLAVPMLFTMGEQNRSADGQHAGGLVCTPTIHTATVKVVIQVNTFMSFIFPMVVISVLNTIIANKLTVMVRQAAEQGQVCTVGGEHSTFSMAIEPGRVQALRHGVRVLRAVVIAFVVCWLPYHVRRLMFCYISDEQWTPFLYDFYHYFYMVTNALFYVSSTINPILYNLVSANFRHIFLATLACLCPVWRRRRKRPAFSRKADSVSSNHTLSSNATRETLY

Row | Kd [3] [nM] | SMILES | Activity (Mus musculus [1]) | Activity (Mus musculus [2])
1 | – | CC[C@H](C)[C@H](NC(=O)[C@H](Cc1ccc(O)cc1)NC(=O)[C@@H]1CCCN1C(=O)[C@H](CCCCN)NC(=O)[C@H](CCCCN)NC(=O)[C@H](CCCCNCCCNCCCNCCCCNCCCN)NC(C)=O)C(=O)N[C@@H](CC(C)C)C(=O)O (Ac-[X1]KKPYIL-OH) | Active | Active
2 | 1.55 | CN[C@@H](CCCN=C(N)N)C(=O)N[C@@H](CCCCN)C(=O)N1CCC[C@H]1C(=O)N[C@@H](Cc1cccc2cc[nH]c12)C(=O)N[C@H](C(=O)N[C@@H](CC(C)C)C(=O)O)C(C)(C)C (H-[NMeR]KP[X2][Tle]L-OH) | – | –
3 | 150 | CC[C@H](C)[C@@H]1NC(=O)[C@H](Cc2ccc(O)cc2)NC(=O)[C@@H]2CCCN2C(=O)[C@H](CCCCN)NC(=O)[C@H](CCCCN)NC(=O)[C@H](CC(C)C)NC(=O)[C@H]([C@@H](C)CC)NC(=O)[C@H](Cc2ccc(O)cc2)NC(=O)[C@@H]2CCCN2C(=O)[C@H](CCCCN)NC(=O)[C@H](CCCCN)NC(=O)[C@H](CC(C)C)NC1=O (cyclo(ILKKPYILKKPY)) | – | –
